Measurements from patent publication US20070032409A1, “Bradykinin receptor antagonists and uses thereof” (VANDERBILT UNIVERSITY, priority 2005, published 2007).
Where two headings read alike, the source gives them in different places.

Experiments:
[1] = tested on: tissue-type plasminogen activator (t-PA) activity; experiment: t-PA activity in arterial blood, chromogenic substrate kit
[2] = tested on: hypotensive transgenic mice that harbor the B2 receptor; conditions: mouse, in vivo; cited from earlier work
[3] = tested on: vasodilation in response to exogenous bradykinin; conditions: HOE 140 100 μg/kg; cited from earlier work
[4] = tested on: t-PA antigen; experiment: t-PA antigen in arterial blood, 2-site ELISA
[5] = tested on: bradykinin-induced hypotension; conditions: correlated with antagonism of bradykinin-induced hypotension; cited from earlier work
[6] = tested on: adult patients undergoing elective cardiac surgery requiring CPB; experiment: Hemodynamic response (MAP, heart rate) to protamine infusion, double-blind randomized study; assay type: in vivo, human
Experimental: The present inventors conducted a double-blind randomized study in sixteen adult male patients undergoing elective cardiac surgery requiring CPB and taking an angiotensin-converting enzyme inhibitor preoperatively. […] Mean arterial pressure (MAP) and tissue-type plasminogen activator (t-PA) activity were measured intraoperatively and before and after protamine.
Sixteen adult patients undergoing elective cardiac surgery requiring CPB and taking an ACE inhibitor preoperatively were studied. Patients were excluded if they had evidence of coagulopathy (INR greater than 1.7), underwent emergency surgery, underwent redo-CABG, had taken a glycoprotein IIb/IIIa antagonist within 2 days of surgery or had renal insufficiency (baseline creatinine>1.5 mg/dl). All patients provided written informed consent.

[7] = tested on: adult patients undergoing elective cardiac surgery requiring CPB; experiment: Safety: intra- and postoperative patient characteristics; assay type: in vivo, human; conditions: HOE 140 group N=8
Experimental: Patients were transfused according to the following guidelines: packed red blood cells (PRBC) were transfused for a hematocrit less than 20% during CPB and for a hematocrit less than 25% after CPB, CPB time >120 min, or evidence of end-organ dysfunction. Platelets were transfused in 5-U sets for ongoing microvascular bleeding despite a normalized ACT. Fresh frozen plasma (FFP) was given for continued bleeding only after platelets were given. Transfusion requirements were recorded from the beginning of surgery until hospital discharge.

[8] = tested on: plasminogen activator inhibitor -1 (PAI-1) antigen; experiment: PAI-1 antigen in arterial blood, 2-site ELISA; conditions: HOE 140 group N=8
[9] = tested on: tissue factor and plasminogen activator inhibitor-1; conditions: cited from earlier work
[10] = tested on: rats; conditions: after i.v. bradykinin, endogenously-released kinins, induction of acute pancreatitis; cited from earlier work
[11] = tested on: pancreatitis-induced hypotension; conditions: dog, in vivo; cited from earlier work
[12] = target: neutral endopeptidase 24.11 (Homo sapiens, UniProt P08473); conditions: cited from earlier work
[13] = tested on: bradykinin; experiment: Arterial bradykinin concentrations before and after protamine, enzyme immunoassay; conditions: all patients; for bradykinin concentration after protamine: P=0.006
[14] = cited from earlier work
[15] = target: aminopeptidase M (Homo sapiens, UniProt P15144); conditions: cited from earlier work
[16] = target: angiotensin-converting enzyme (ACE) (Homo sapiens, UniProt P12821); conditions: cited from earlier work
[17] = target: T1, carboxypeptidase N (kininase I) (Homo sapiens, UniProt P15169); conditions: cited from earlier work
T1 sequence (P15169 21-458): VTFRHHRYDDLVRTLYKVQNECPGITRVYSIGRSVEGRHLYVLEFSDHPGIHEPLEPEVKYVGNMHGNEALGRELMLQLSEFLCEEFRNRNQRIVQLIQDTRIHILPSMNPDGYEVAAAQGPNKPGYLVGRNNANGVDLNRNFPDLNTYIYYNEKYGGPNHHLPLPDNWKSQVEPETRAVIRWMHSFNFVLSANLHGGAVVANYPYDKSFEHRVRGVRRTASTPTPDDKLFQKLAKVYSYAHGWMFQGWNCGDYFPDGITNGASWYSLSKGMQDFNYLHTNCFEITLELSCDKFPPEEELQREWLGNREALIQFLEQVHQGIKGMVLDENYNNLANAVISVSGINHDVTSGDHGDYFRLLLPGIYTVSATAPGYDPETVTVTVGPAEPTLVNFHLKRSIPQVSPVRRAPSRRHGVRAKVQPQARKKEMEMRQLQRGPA
T1 sequence (P22792 22-545 partner): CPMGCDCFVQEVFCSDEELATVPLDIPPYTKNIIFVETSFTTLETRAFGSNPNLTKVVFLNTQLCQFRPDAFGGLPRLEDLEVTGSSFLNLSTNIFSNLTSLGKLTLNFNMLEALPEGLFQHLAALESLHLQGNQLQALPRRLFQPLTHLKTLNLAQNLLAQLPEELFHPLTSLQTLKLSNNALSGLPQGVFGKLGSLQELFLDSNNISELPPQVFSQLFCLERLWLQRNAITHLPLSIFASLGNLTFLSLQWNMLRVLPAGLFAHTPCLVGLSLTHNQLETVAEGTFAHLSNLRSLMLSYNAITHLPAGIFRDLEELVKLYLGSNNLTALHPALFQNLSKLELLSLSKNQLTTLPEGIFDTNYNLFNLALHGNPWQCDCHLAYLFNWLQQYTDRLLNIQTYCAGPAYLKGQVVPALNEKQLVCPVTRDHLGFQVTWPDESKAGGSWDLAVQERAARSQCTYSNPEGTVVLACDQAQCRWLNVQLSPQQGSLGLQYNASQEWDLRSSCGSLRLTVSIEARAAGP

[18] = HOE 140 group N=8, mean±SD, in beats/min (unit assumed)
[19] = protamine 250 mg over 8 min after CPB

Chain of aminopeptidase M (P15144 whole entry, species assumed): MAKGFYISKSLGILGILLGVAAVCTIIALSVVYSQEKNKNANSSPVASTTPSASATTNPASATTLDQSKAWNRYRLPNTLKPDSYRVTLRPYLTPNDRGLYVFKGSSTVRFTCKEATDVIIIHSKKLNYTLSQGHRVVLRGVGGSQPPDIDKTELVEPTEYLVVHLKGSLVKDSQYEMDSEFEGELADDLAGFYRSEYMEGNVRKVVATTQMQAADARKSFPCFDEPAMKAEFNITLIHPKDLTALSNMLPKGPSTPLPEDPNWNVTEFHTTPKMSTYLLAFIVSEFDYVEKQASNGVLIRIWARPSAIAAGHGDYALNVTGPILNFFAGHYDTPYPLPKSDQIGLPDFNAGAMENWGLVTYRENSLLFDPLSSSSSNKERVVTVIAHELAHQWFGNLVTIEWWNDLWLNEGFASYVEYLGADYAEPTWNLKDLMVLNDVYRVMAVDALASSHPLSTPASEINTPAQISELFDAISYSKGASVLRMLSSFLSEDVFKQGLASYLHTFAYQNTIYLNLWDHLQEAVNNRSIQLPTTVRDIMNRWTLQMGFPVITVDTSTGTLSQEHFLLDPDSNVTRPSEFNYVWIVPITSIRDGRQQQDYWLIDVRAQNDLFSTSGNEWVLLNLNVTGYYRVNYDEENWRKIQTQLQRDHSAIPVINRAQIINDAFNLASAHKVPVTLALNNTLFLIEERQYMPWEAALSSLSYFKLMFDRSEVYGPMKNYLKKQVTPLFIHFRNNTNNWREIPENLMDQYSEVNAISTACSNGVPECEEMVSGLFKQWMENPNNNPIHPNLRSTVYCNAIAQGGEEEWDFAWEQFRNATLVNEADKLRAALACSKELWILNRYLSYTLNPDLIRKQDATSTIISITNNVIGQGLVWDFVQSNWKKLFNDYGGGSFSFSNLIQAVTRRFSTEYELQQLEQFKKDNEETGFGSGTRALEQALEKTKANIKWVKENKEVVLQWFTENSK
Chain of angiotensin-converting enzyme (ACE) (P12821 30-1306, species assumed): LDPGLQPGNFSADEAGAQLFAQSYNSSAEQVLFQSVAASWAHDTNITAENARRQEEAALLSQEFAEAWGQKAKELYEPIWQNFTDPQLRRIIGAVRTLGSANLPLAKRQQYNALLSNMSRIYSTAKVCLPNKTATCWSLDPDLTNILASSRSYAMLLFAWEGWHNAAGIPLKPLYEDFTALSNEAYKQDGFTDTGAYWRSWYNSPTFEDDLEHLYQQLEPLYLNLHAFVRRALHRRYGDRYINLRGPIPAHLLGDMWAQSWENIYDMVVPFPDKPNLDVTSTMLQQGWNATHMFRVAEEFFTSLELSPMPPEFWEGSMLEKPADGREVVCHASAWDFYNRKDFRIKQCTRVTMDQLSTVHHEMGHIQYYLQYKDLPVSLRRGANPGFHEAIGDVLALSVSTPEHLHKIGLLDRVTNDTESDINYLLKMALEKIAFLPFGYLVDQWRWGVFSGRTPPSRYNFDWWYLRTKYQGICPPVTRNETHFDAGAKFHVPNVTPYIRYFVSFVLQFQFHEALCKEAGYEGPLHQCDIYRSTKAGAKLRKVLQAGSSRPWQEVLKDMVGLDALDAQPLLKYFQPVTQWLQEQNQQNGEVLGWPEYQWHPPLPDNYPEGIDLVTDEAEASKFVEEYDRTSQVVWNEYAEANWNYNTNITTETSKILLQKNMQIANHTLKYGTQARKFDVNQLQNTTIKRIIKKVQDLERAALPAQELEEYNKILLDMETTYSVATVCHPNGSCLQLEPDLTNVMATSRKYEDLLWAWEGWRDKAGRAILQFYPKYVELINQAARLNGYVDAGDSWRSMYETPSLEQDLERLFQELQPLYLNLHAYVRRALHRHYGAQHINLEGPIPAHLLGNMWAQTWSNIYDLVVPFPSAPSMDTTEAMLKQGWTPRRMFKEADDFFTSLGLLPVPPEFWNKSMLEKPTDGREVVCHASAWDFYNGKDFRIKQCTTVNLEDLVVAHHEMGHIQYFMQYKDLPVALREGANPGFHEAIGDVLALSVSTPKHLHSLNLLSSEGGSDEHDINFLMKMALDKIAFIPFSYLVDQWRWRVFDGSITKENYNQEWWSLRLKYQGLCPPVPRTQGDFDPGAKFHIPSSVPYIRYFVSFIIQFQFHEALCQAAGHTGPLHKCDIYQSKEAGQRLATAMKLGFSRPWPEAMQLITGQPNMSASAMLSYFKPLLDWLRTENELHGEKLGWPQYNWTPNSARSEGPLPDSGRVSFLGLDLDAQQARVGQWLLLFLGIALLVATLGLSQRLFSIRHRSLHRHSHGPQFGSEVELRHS
Chain of neutral endopeptidase 24.11 (P08473 whole entry, species assumed): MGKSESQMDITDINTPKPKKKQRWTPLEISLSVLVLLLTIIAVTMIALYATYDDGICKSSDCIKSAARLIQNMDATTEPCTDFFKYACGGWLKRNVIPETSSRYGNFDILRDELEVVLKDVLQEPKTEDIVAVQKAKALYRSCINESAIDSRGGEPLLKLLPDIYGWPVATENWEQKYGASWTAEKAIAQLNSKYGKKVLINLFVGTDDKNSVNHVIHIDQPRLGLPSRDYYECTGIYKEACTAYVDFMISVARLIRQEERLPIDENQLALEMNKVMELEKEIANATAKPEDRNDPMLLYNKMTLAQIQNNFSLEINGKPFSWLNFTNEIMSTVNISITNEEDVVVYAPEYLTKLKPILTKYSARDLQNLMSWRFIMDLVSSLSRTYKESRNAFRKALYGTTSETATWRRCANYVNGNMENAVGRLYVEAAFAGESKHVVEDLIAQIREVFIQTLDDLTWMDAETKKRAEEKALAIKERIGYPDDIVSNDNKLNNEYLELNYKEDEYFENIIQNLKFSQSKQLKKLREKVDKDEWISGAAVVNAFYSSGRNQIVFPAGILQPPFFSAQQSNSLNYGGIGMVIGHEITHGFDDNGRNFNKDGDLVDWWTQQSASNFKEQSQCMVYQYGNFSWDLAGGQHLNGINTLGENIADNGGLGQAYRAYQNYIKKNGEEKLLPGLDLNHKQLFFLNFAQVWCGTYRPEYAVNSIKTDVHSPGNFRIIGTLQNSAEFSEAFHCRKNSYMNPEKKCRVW

NC(N)=NCCC[C@@H](N)C(=O)N[C@@H](CCCN=C(N)N)C(=O)N1CCC[C@H]1C(=O)N1C[C@H](O)C[C@H]1C(=O)NCC(=O)N[C@@H](Cc1cccs1)C(=O)N[C@@H](CO)C(=O)N1Cc2ccccc2C[C@@H]1C(=O)N1[C@H](C(=O)N[C@@H](CCCN=C(N)N)C(=O)O)C[C@@H]2CCCC[C@@H]21 [HOE 140]
t-PA activity, intraoperative ([1]; 60 min after initiation of CPB, prior to receiving HOE 140, N=8): 3.59±0.88 IU/ml
t-PA activity, pre-protamine ([1]; after HOE 140 administration (100 μg/kg i.v.), before protamine, N=8): 1.67±1.18 IU/ml
t-PA activity, post-protamine ([1]; after protamine infusion in HOE 140 group, N=8): 0.77±0.74 IU/ml
t-PA activity, baseline ([1]; before initiation of CPB, prior to HOE 140, N=8): 0.42±0.29 IU/ml
change in t-PA activity ([1]; during HOE 140 administration, P=0.036 compared to saline): −1.92±0.94 IU/ml
effect on blood pressure [2]: restoring blood pressure to normal levels
effect on vasodilation in response to exogenous bradykinin [3]: prevents vasodilation
t-PA antigen after protamine administration ([4]; HOE 140 group N=8): 22.7 ± 9.1 ng/mL
t-PA antigen after study drug infusion, before protamine ([4]; HOE 140 group N=8): 20.1 ± 6.1 ng/mL
t-PA antigen before study drug infusion ([4]; HOE 140 group, intraoperative, N=8): 23.4 ± 12.6 ng/mL
effect on blood pressure [5]: increased blood pressure
MAP during protamine infusion (nadir) ([6]; HOE 140 100 μg/kg i.v. before protamine, N=8, mean±SD): 69.6±3.4 mmHg
MAP at the start of the protamine infusion (pre-protamine) ([6]; HOE 140 100 μg/kg i.v. over one-half hour at end of CPB before protamine, N=8, mean±SD): 74.3±10.6 mmHg
heart rate after protamine [6, 18]: 81.0±14.0
heart rate prior to protamine [6, 18]: 91.4±9.5
effect on decrease in MAP during protamine infusion ([6]; P=0.022, ANOVA, versus saline): significantly blunted
reduction of mean arterial pressure by protamine ([6]; in the presence of HOE 140): about 6%
CT 4 hours (chest tube output) [7]: 299.4 ± 233.0 mL
CT 24 hours (chest tube output) [7]: 759.6 ± 276.4 mL
Fresh frozen plasma transfusion [7]: 0.4 ± 1.1 Units
New onset atrial fibrillation [7]: 1(12.5) N(%)
PRBC transfusion [7]: 4.4 ± 4.0 Units
Platelet transfusion [7]: 275 ± 177 mL
Time to extubation >10 hours [7]: 2(25) N(%)
PAI-1 antigen after protamine administration [8]: 27.4 ± 15.5 ng/mL
PAI-1 antigen before protamine administration [8]: 20.2 ± 17.1 ng/mL
PAI-1 antigen on postoperative day 1 [8]: 32.4 ± 10.1 ng/mL
effect on bradykinin-increased expression of tissue factor and PAI-1 [9]: suppressed
effect on decreases in blood pressure [10]: blocks
effect on pancreatitis-induced hypotension [11]: improvement of the hypotension in some animals
effect on release of bradykinin and beta-endorphin [11]: inhibited

Protamine: highly basic polycationic polypeptide given at the end of CPB to reverse the anticoagulation effects of heparin (SEQ ID NO:1) (MARYRCCRSQSRSRYYRQRQRSRRRRRRSCQTRRRAMRCCRPRYRPRCRRH)
inhibition of neutral endopeptidase 24.11 [12]: does not inhibit
bradykinin concentration before protamine [13]: 6.3±4.3 finol/ml
bradykinin concentration after protamine [13]: 12.2±9.8 finol/ml
bradykinin concentration before protamine [13, 19]: 6.3 ± 4.3 fmol/mL
bradykinin concentration after protamine [13, 19]: 12.2 ± 9.8 fmol/mL
time to neutralization of heparin ([14]; after i.v. administration): ≤ 5 min
heparin activity neutralized per mg of protamine sulfate ([14]; heparin derived from intestinal mucosa): about 115 USP units
heparin activity neutralized per mg of protamine sulfate ([14]; heparin derived from lung tissue): approximately 90 USP units
inhibition of aminopeptidase M [15]: does not inhibit
inhibition of angiotensin-converting enzyme (ACE) [16]: does not inhibit
inhibition of carboxypeptidase N (kininase I) [17]: inhibits
